We go through two compounds from PMC9776540, “Therapeutic Potential of a Water-Soluble Silver-Diclofenac Coordination Polymer on 3D Pancreatic Cancer Spheroids” (Journal of Medicinal Chemistry, 2022).

Usually IC50 stands for the point on the concentration scale where inhibition reaches its midpoint.

Data set [1] relates to human cell lines. To be noted: up to a concentration of 100 μM. As to the method:
(§1) MCF7 cell line (human breast adenocarcinoma, morphology: epithelial-like, ATCC: HTB-22), A549 cell […]
(§2) keratinocyte, morphology: epidermal, CSL Cell Lines Service GmbH); were cultured in Dulbecco’s Modified Eagle’s Medium (DMEM, Corning) with phenol red, supplemented with 10% fetal bovine serum (FBS) and with 1% streptomycin/penicillin. […]
(§3) from metastatic site: brain, ATCC: HTB-81) and MCR-5 cell line (primary line of human pulmonary […]
(§4) 10% fetal bovine serum (FBS). Cultures were incubated at 37 °C under a humidified atmosphere containing 5% CO2. Cells were transferred using a solution containing 0.05% trypsin and 0.5 mM EDTA.
(§5) All media and other ingredients were purchased from ALAB, Poland.
Cytotoxicity was assessed by MTT assay performed according the protocols described elsewhere.S1 In brief, 1×10^4 cells per well, seeded in 96-well flat bottom microtiter plate, were incubated with the tested compounds (in the appropriate media) at various range of concentrations for 24 h. […] After next 72 h cell viability was determined using the Hill equation (Origin 9.0) with regard to the untreated cells (control), where y0 – untreated cell control (which was set to 100% viability), y100 – a lysis control (where the cells were treated with 0.5% triton X-100 was set to 0% […]
Determined values of IC50 are given as mean + S.D. (Standard Deviation). […]

Data set [2] concerns PANC-1. As to the kind of experiment: MTT survival test, surviving fraction (Table S3). The format is cell-based, human. As to the method:
(§6) 24, and 72 h. After each incubation time, the cells were washed with PBS. Then, fresh medium (supplemented with 10% FSB) was added, and the cells were incubated under standard conditions for another 24 h (6h + 24h, 24h + 24h, 72h + 24h). After this time, the MTT survival test was done. Surviving fraction given in % was estimated with relation to untreated cells. In the case of 6h + 24h and 24h + 24h approaches, the cells were seeded at 10 000 cells per well, while in the case of 72h + 24h at […]
For orientation: Formazan colour is commonly taken as a measure of viable cells.

The test system of data set [3] is DU-145. As to the kind of experiment: MTT survival test, surviving fraction (Table S3). It is filed as cell-based, human. Here is the method:
as §6

Data set [4] deals with HaCat. As to the kind of experiment: MTT survival test, surviving fraction (Table S3). It is filed as cell-based, human. Here is the method:
as §6

In data set [5] the test system is MCF-7. As to the kind of experiment: MTT survival test, surviving fraction (Table S3). It is filed as cell-based, human. As to the method:
as §6

For data set [6], the system named is A549. The experiment in a line: MTT survival test, surviving fraction (Table S3). The format is cell-based, human. As to the method:
as §6

In data set [7] the test system is MRC5. As to the kind of experiment: MTT cytotoxicity assay (IC50). The format is cell-based, human. The note with it: MRC5 normal cells, after 72 h incubation, MTT, vs untreated control cells; read-out: IC50. Here is the method: as §1, §2, §3, §4, §5
(§7) Cytotoxicity was assessed by MTT assay performed according the protocols described elsewhere.S1 In brief, 1×10^4 cells per well, seeded in 96-well flat bottom microtiter plate, were incubated with the tested compounds (in the appropriate media) at various range of concentrations for 24 h. After that time, solutions of compounds were washed out, cells were washed three times with PBS and fresh medium was applied. After next 72 h cell viability was determined using the Hill equation (Origin 9.0) with regard to the untreated cells (control), where y0 – untreated cell control (which was set to 100% viability), y100 – a lysis control (where the cells were treated with 0.5% triton X-100 was set to 0% […]
(§8) [c] at which the viability of the cells reaches 50%, H – the Hill coefficient (describing cooperativity):
(§9) Each compound concentration was tested in five replicates and repeated at least three times.
(§10) Determined values of IC50 are given as mean + S.D. (Standard Deviation).
(§11) Cisplatin was tested as a reference anticancer drug. […]

Data set [8] concerns PANC-1. The experiment in a line: MTT cytotoxicity assay (IC50). It is filed as cell-based, human. The note with it: PANC-1, after 72 h incubation, MTT, vs untreated control cells; read-out: IC50. Here is the method: as §1, §2, §3, §4, §5, §7, §8, §9, §10, §11
Data set [9] deals with DU-145. The experiment in a line: MTT cytotoxicity assay (IC50). It is filed as cell-based, human. To be noted: DU-145, after 72 h incubation, MTT, vs untreated control cells; read-out: IC50. Here is the method: as §1, §2, §3, §4, §5, §7, §8, §9, §10, §11
The test system of data set [10] is MCF7. As to the kind of experiment: MTT cytotoxicity assay (IC50). It is filed as cell-based, human. To be noted: MCF7, after 72 h incubation, MTT, vs untreated control cells; read-out: IC50. Here is the method: as §1, §2, §3, §4, §5, §7, §8, §9, §10, §11
In data set [11] the test system is HaCat. As to the kind of experiment: MTT cytotoxicity assay (IC50). It is filed as cell-based, human. The note with it: HaCat normal cells, after 72 h incubation, MTT, vs untreated control cells; read-out: IC50. Here is the method:
as §1, §2, §3, §4, §5, §7, §8, §9, §10, §11

The subject of data set [12] is A549. The experiment in a line: MTT cytotoxicity assay (IC50). The format is cell-based, human. The note with it: A549, after 72 h incubation, MTT, vs untreated control cells; read-out: IC50. As to the method:
as §1, §2, §3, §4, §5, §7, §8, §9, §10, §11

Molecules are shown by their SMILES.

`O=[N+]([O-])[O-].[Ag+]` [AgNO3, silver(I) nitrate]: the “cytotoxic effect of free Ag(I) salt” value in data set [1] is “does not cause significant toxic effects”. In addition, the surviving fraction is reported as 76.2 ± 7.4% in data set [2] (PANC-1, 6h + 24h, dil. 10 000x (stocks: diclofenac 0.918, PTA 0.483, AgNO3 0.326 mg/mL)); 65.89 ± 4.6% in [2] (PANC-1, 6h + 24h, dil. 1000x (stocks: diclofenac 0.918, PTA 0.483, AgNO3 0.326 mg/mL)); 65.8 ± 6.6% in data set [2] (PANC-1, 24h + 24h, dil. 10 000x (stocks: diclofenac 0.918, PTA 0.483, AgNO3 0.326 mg/mL)); 44.2 ± 9.2% in data set [2] (PANC-1, 24h + 24h, dil. 1000x (stocks: diclofenac 0.918, PTA 0.483, AgNO3 0.326 mg/mL)); 65.8 ± 6.1% in [2] (PANC-1, 72h + 24h, dil. 10 000x (stocks: diclofenac 0.918, PTA 0.483, AgNO3 0.326 mg/mL)); 55.4 ± 6.7% in data set [2] (PANC-1, 72h + 24h, dil. 1000x (stocks: diclofenac 0.918, PTA 0.483, AgNO3 0.326 mg/mL)). Besides, the surviving fraction in data set [3] (Du-145, 6h + 24h, dil. 10 000x (stocks: diclofenac 0.918, PTA 0.483, AgNO3 0.326 mg/mL)) was found to be 74.5 ± 8.8%; in [3] (Du-145, 6h + 24h, dil. 1000x (stocks: diclofenac 0.918, PTA 0.483, AgNO3 0.326 mg/mL)) it was 62.87 ± 5.9%; in [3] (Du-145, 24h + 24h, dil. 10 000x (stocks: diclofenac 0.918, PTA 0.483, AgNO3 0.326 mg/mL)), 58.8 ± 7.3%; in data set [3] (Du-145, 24h + 24h, dil. 1000x (stocks: diclofenac 0.918, PTA 0.483, AgNO3 0.326 mg/mL)), 36.7 ± 7.1%; in data set [3] (Du-145, 72h + 24h, dil. 10 000x (stocks: diclofenac 0.918, PTA 0.483, AgNO3 0.326 mg/mL)), 56.1 ± 5.9%; in [3] (Du-145, 72h + 24h, dil. 1000x (stocks: diclofenac 0.918, PTA 0.483, AgNO3 0.326 mg/mL)), 42.8 ± 5.9%. The surviving fraction was 88.1 ± 4.2% in [4] (6h + 24h, dil. 10 000x (stocks: diclofenac 0.918, PTA 0.483, AgNO3 0.326 mg/mL)); 76.7 ± 6.8% in [4] (6h + 24h, dil. 1000x (stocks: diclofenac 0.918, PTA 0.483, AgNO3 0.326 mg/mL)); 72.7 ± 8.1% in [4] (24h + 24h, dil. 10 000x (stocks: diclofenac 0.918, PTA 0.483, AgNO3 0.326 mg/mL)); 41.6 ± 6.9% in data set [4] (24h + 24h, dil. 1000x (stocks: diclofenac 0.918, PTA 0.483, AgNO3 0.326 mg/mL)); 70.5 ± 5.8% in data set [4] (72h + 24h, dil. 10 000x (stocks: diclofenac 0.918, PTA 0.483, AgNO3 0.326 mg/mL)); 65.2 ± 6.3% in data set [4] (72h + 24h, dil. 1000x (stocks: diclofenac 0.918, PTA 0.483, AgNO3 0.326 mg/mL)). In addition, the surviving fraction was 59.2 ± 8.2% in data set [5] (MCF-7, 6h + 24h, dil. 10 000x (stocks: diclofenac 0.918, PTA 0.483, AgNO3 0.326 mg/mL)); 62.7 ± 6.3% in data set [5] (MCF-7, 6h + 24h, dil. 1000x (stocks: diclofenac 0.918, PTA 0.483, AgNO3 0.326 mg/mL)); 62.1 ± 5.5% in data set [5] (MCF-7, 24h + 24h, dil. 10 000x (stocks: diclofenac 0.918, PTA 0.483, AgNO3 0.326 mg/mL)); 38.5 ± 7.3% in [5] (MCF-7, 24h + 24h, dil. 1000x (stocks: diclofenac 0.918, PTA 0.483, AgNO3 0.326 mg/mL)); 56.8 ± 6.2% in data set [5] (MCF-7, 72h + 24h, dil. 10 000x (stocks: diclofenac 0.918, PTA 0.483, AgNO3 0.326 mg/mL)); 36.0 ± 8.4% in data set [5] (MCF-7, 72h + 24h, dil. 1000x (stocks: diclofenac 0.918, PTA 0.483, AgNO3 0.326 mg/mL)). Also, the surviving fraction in [6] (A549, 6h + 24h, dil. 10 000x (stocks: diclofenac 0.918, PTA 0.483, AgNO3 0.326 mg/mL)) amounted to 68.1 ± 6.2%; in data set [6] (A549, 6h + 24h, dil. 1000x (stocks: diclofenac 0.918, PTA 0.483, AgNO3 0.326 mg/mL)), 48.9 ± 6.5%; in data set [6] (A549, 24h + 24h, dil. 10 000x (stocks: diclofenac 0.918, PTA 0.483, AgNO3 0.326 mg/mL)), 57.4 ± 3.8%; in data set [6] (A549, 24h + 24h, dil. 1000x (stocks: diclofenac 0.918, PTA 0.483, AgNO3 0.326 mg/mL)) it was 31.2 ± 5.5%; in [6] (A549, 72h + 24h, dil. 10 000x (stocks: diclofenac 0.918, PTA 0.483, AgNO3 0.326 mg/mL)), 55.8 ± 8.1%; in data set [6] (A549, 72h + 24h, dil. 1000x (stocks: diclofenac 0.918, PTA 0.483, AgNO3 0.326 mg/mL)), 34.1 ± 5.3%.
As for `N.N.[Cl][Pt][Cl]` [cisplatin], the IC50 was 31.5 ± 4.1 µM in data set [7]; 12.5 ± 1.3 µM in [8]; over 100 µM in data set [9]; 50.9 ± 7.6 µM in data set [10]; 26.4 ± 2.7 µM in data set [11]; over 100 µM in [12].
